For 3 molecules, IC50 results are on record in patent publication US20250214945A1, “THIOBENZIMIDAZOLE DERIVATIVE OR PHARMACEUTICALLY ACCEPTABLE SALT THEREOF, AND USE THEREOF” (KOREA UNIVERSITY RESEARCH AND BUSINESS FOUNDATION, priority 2022, published 2025).

Assay [1] relates to Human triple-negative breast cancer (TNBC) cell line MDA-MB-231. Put plainly: MTS cell viability assay, MDA-MB-231 breast cancer cell line. The following applies: 0 to 10 μM, FIG. 3, one range stated for both cell lines and three compounds. The format is cell-based. As for the experimental part:
(§1) Human triple-negative breast cancer (TNBC) cell line MDA-MB-231 (Cell seeding numbers: 1(M231)×10^4 cells/wells (confluency ≥25%) and HER2 positive breast cancer (HER2^+ BC) cell line JIMT-1 (Cell seeding numbers: 1.2(JIMT)×10^4 cells/wells (confluency ≥25%)) were used in the experiments.
(§2) The above mentioned cell lines were cultured under a 5% CO2 environment at 37° C. in Dulbecco's modified Eagle's medium (DMEM) containing 10% fetal bovine serum (FBS), streptomycin-penicillin (100 U/mL) and Fungizone ([…]), respectively.
(§3) The human breast cancer cell lines MDA-MB-231 and JIMT-1 were treated with thiobenzimidazole derivatives of Chemical Formula 1-1 to Chemical Formula 1-17 at concentrations of 0, 0.5, 1 and 5 μM for 72 hours, respectively, and then cell viability was measured by MTS assay. The MTS assay was performed by attaching cells to 96-well plates for 24 hours, treating them with the above mentioned thiobenzimidazole derivatives for 72 hours, and then developing them with MTS (3-(4,5-dimethylthiazol-2-yl)-5-(3-carboxymethoxyphenyl)-2-(4-sulfophenyl)-2H-tetrazolium) for 4 hours, and measuring the absorbance at 490 nm using a Spectramax Plus384 microplate analyzer.
(§4) MDA-MB-231 and JIMT-1 cell lines were treated with the thiobenzimidazole derivatives of the present disclosure (Chemical Formula 1-10, 1-11 and 1-15) at concentrations of 0. 0.01, 0.05, 0.1, 0.1, 0.25, 0.5, 1, 5 and 10 μM, respectively, and then the cell viability and corresponding IC50 values were determined. The preparation and experimentation methods for the cell lines were the same as those used in the Example 1 experiments.
(In general: Formazan colour is commonly taken as a measure of viable cells.)

Assay [2] relates to HER2 positive breast cancer (HER2+ BC) cell line JIMT-1. Put plainly: MTS cell viability assay, JIMT-1 breast cancer cell line. In kind it is cell-based. The following applies: Homo sapiens, 0 to 10 μM, FIG. 3, one range stated for both cell lines and three compounds. As for the experimental part:
as §1, §2, §3, §4

Consider `COC(=O)Nc1nc2cc(Sc3ccc(N4CCS(=O)(=O)CC4)cc3)ccc2[nH]1` [1-10], for which the IC50 in assay [1] and in assay [2] was 150 to 350 nM in each case.

`COC(=O)Nc1nc2cc(Sc3ccc(N4CC(C)N(S(C)(=O)=O)C(C)C4)cc3)ccc2[nH]1` (stereo not drawn) [1-11]: the IC50 in assay [1] and in assay [2] was 150 to 350 nM throughout.

Turning to `COC(=O)Nc1nc2cc(Sc3ccc(N4CCC(O)CC4)cc3)ccc2[nH]1` [1-15], the IC50 in assay [1] and in assay [2] was 150 to 350 nM throughout.
